Results from patent US11160798B2, “Neuroprotective CB2 receptor agonists” (THE CLEVELAND CLINIC FOUNDATION, priority 2012, dated 2021).

What was measured:
CB2 receptor = CB2 receptor (Homo sapiens, UniProt P34972); details: cited from earlier work
Aβ1-40 = assay: Clearance of Aβ1-40 injected in the hippocampal CA1 area (immunofluorescence); format: in vivo, rat
Method: (§1) Animals were divided into several groups ([…]). The Aβ1-40 group received bilateral intracerebral microinjection of Aβ1-40 fibrils once and saline intraperitoneally (i.p.) daily for 14 days. The Aβ1-40+MDA7 group received bilateral intracerebral microinjection of Aβ1-40 fibrils once and 15 mg/kg MDA7 i.p. daily for 14 days. Other cohorts received smaller doses of MDA7 (5 mg/kg or 1.5 mg/kg) i.p. daily for 14 days to determine the dose-response characteristics for MDA7. In other groups, AM630 (a CB2 antagonist) 5 mg/kg i.p. was administered daily for 14 days either alone (Aβ1-40+AM630 group) or 15 min prior to MDA7 (15 mg/kg i.p.) administration (Aβ1-40+MDA7+AM630 group) to rats injected with β1-40 fibrils. MDA7 group and control group received bilateral intracerebral microinjection of artificial cerebrospinal fluid (130 mM NaCl, 2.6 mM KCl. 4.3 mM MgCl2 and 1.8 mM CaCl2) once and 15 mg/kg MDA7 or saline i.p. daily for 14 days, respectively. Intraperitoneal administration of AM630, MDA7 or saline started on the same day after intracerebral microinjection of Aβ1-40. All drugs were prepared coded. Decoding was performed at the end of all experiments.
Microinjection of amyloid fibrils into the hippocampal CA1 area. Rats were anesthetized with sodium pentobarbital (45 mg/kg i.p.) and restrained in a stereotaxic apparatus. Aβ1-40 fibrils were formed as described previously. […]
Immunostaining. […] Three to six sections from each rat were randomly selected and were analyzed using Leica DMLB fluorescence microscope (Leica Microsystems Wetzlar GmbH, Germany) by one investigator, who was blinded to the origin of tissue being examined. Images were quantified using MCID Core software version 7.0 (InterFocus Imaging Ltd, Cambridge, England).

[1] = test system: cognitive impairment induced by Aβ1-40; assay: Morris water maze test in rats microinjected with Aβ1-40 fibrils; format: in vivo, rat; details: Aβ1-40-injected rats
Method: Animals and treatment protocol. All animal procedures were approved by the Animal Care and Use Committee of Cleveland Clinic. Animals were housed the Institutional Biological Rodent Unit on a 12/12 h light/dark cycle with water and food pellets available ad libitum. Adult male Sprague-Dawley (Charles River, Wilmington, Mass.) rats weighing 200-250 g were used, and all experiments were performed during the light cycle.
as §1
Microinjection of amyloid fibrils into the hippocampal CA1 area. Rats were anesthetized with sodium pentobarbital (45 mg/kg i.p.) and restrained in a stereotaxic apparatus. Aβ1-40 fibrils were formed as described previously. Chacon, et al., Mol Psychiatry 9(10), 953-61 (2004), Aβ1-40 fibrils (10 μg/3 μl) or 3 μl of artificial cerebrospinal fluid were injected stereotaxically and bilaterally into each hippocampus (coordinates; Bregma −3.5 mm anteroposterior, ±2.0 mm mediolateral, and −3.0 mm dorsoventral) using a 10 μl Hamilton syringe with a 27 G stainless steel needle at a rate of 0.5 μl/min. This experimental model has been used for studying AD. Ahmed, et al., Neuroscience 169(3), 1296-306 (2010).
Morris water maze test. A cohort of rats (n=10 per group) was tested 15 days after surgery as described by Chacon et al. (ibid). Testing was conducted in all groups at the same time of the day. The experimental apparatus consisted of a circular pool (120 cm in diameter, 45 cm high). An invisible platform (15 cm in diameter, 35 cm high) was placed 1.5 cm below the surface of the water. The water temperature was kept at 24-28° C. The pool was located in a test room, and many clues external to the maze were visible from the pool, which could be used by the rats for spatial orientation. The position of the cues was kept constant throughout the task. Each rat underwent four trials per day for five days. During each trial (memory acquisition), the rats were placed randomly at one of four fixed starting points and were allowed to swim for 120 s or until they escaped from the water by reaching the platform. The platform was located in the same position throughout the test in the middle of one quadrant. The start location was moved to a different quadrant in each trial so that no single start location was used in consecutive trials. In each training session, the latency to escape to the hidden platform was recorded. After the rats reached the platform, they were allowed to rest there for 20 seconds, and they then were removed from the pool. An inter-trial interval of at least 4 minutes was used to ensure that each rat's performance was not impaired by fatigue. After completing four trials, the rats were removed from the pool, dried and returned to their home cage. […]

Chain of CB2 receptor (P34972 whole entry): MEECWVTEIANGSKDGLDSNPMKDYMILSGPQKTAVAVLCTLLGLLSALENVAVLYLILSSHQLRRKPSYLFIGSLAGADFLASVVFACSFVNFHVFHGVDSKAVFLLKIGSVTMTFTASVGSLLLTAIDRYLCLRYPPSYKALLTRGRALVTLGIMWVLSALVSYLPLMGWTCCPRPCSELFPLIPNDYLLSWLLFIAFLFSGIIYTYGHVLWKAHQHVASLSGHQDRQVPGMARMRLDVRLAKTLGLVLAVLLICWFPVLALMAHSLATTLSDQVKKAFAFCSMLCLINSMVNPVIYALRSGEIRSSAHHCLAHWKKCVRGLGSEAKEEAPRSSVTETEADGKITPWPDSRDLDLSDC

SMILES | activity compared with the other enantiomer (CB2 receptor) | effect of prior AM630 on MDA7-induced removal of Aβ1-40 (Aβ1-40; AM630 5 mg/kg i.p. for 14 days prior to MDA7 15 mg/kg) | clearance of injected Aβ1-40, AM630 alone (Aβ1-40; Aβ1-40-injected rats, AM630 5 mg/kg i.p. alone) | effect on escape latency of AM630 given prior to MDA7 ([1]; AM630 5 mg/kg i.p. 15 min prior to MDA7 15 mg/kg i.p., daily for 14 days) | spatial memory or probe test, AM630 alone ([1]; AM630 5 mg/kg i.p. daily for 14 days alone, vs Aβ1-40 group)
CC1(Cc2ccccc2)COc2cc(C(=O)N3CCCCC3)ccc21 (stereo in doubt) [S enantiomer, (S)-(3-benzyl-3-methyl-2,3-dihydro-benzofuran-6-yl)-piperidin-1-yl-methanone] | higher activity |  |  |  | 
COc1ccc(C(=O)c2c(C)n(CCN3CCOCC3)c3cc(I)ccc23)cc1 [AM630, reference compound] |  | abrogated | no effect | reversed the effect of MDA7 | did not show any improvement
